Assay results taken from patent publication US9040523B2, “Antifungal 5,6-dihydro-4H-pyrrolo[1,2-α][1,4]-benzodiazepines and 6H-pyrrolo[1,2-α][1,4]benzodiazepines substituted with benzene derivatives” (JANSSEN PHARMACEUTICA NV, priority 2010, dated 2015).

Experiments:
[1] = test system: Scedosporium apiospermum IHEM3817; test: Antifungal activity in vitro (resazurin susceptibility screen), Inf. H; type: cell-based; conditions: 37 °C, 48 hours, resa time 17 hours, read-out: Inf. H pIC50 (converted)
Method: (§1) The standard susceptibility screen was performed in 96-well plates (U-bottom, Greiner Bio-One). […] These serial dilutions (10 n1) were then spotted onto test-plates that could be stored in the dark at 4° C. for a maximum period of 2 weeks. […] The different fungal species/isolates (Table 3a) were cryopreserved and 1/1000 diluted in medium just prior to use. A standard inoculum of 200 μl containing 10^3 colony-forming unit (cfu) was then added to each well. A positive control (100% growth=fungal culture without antifungal) and a negative control (0% growth ═RPMI-MOPS medium) were included on each plate. […] [table]

[2] = test system: Aspergillus fumigatus B42928; test: Antifungal activity in vitro (resazurin susceptibility screen), Inf. E; type: cell-based; conditions: Aspergillus fumigatus B42928; 27 °C, 48 hours, resa time 17 hours; read-out: Inf. E pIC50 (converted)
Method in brief: (§2)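 Each well is seeded with 10^3 colony-forming units against spotted compound dilutions; untreated fungus and plain RPMI-MOPS define the 100% and 0% growth limits.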

[3] = test system: Candida parapsilosis B66126; test: Antifungal activity in vitro (resazurin susceptibility screen), Inf. D; type: cell-based; conditions: Lodderomyces parapsilosis; Candida parapsilosis B66126; 37 °C, 24 hours, resa time 4 hours; read-out: Inf. D pIC50 (converted)
Method in brief: (§3)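 Each well was inoculated with 10^3 cfu of fungus onto dried, pre-spotted compound serial dilutions in RPMI-MOPS medium, with fungal growth read by resazurin. Growth was referenced to drug-free culture (100%) and medium-only (0%) controls on each plate.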

[4] = test system: Sporothrix schenkii B62482; test: Antifungal activity in vitro (resazurin susceptibility screen), Inf. A; type: cell-based; conditions: Sporothrix, B62482, Sporothrix schenkii B62482; 27 °C, 4 days, resa time 24 hours; highest in-test concentration 64 μM; read-out: Inf. A pIC50 (converted)
Method in brief: as §2

[5] = Liver metabolic stability assay, hLM; type: in vitro ADME, human; conditions: human liver microsomes, 1 mg protein/ml, 5 μM test compound, 15 min, 37 °C
Microsporum canis B68128 = test: Antifungal activity in vitro (resazurin susceptibility screen), Inf. B; type: cell-based; conditions: Microsporum canis, B68128, Microsporum canis B68128; 27 °C, 9 days, resa time 24 hours; read-out: Inf. B pIC50 (converted)
Method in brief: as §3

[6] = test system: Cryptococcus neoformans B66663; test: Antifungal activity in vitro (resazurin susceptibility screen), Inf. F; type: cell-based; conditions: Cryptococcus neoformans, B66663, Cryptococcus neoformans B66663; 37 °C, 24 hours, resa time 4 hours; read-out: Inf. F pIC50 (converted)
Method in brief: as §2

[7] = test system: Trichophyton mentagrophytes B70554; test: Antifungal activity in vitro (resazurin susceptibility screen), Inf. G; type: cell-based; conditions: Trichophyton mentagrophytes, B70554, Trichophyton mentagrophytes B70554; 27 °C, 7 days, resa time 24 hours; read-out: Inf. G pIC50 (converted)
Method in brief: as §3

[8] = test system: Mucor circinelloides IHEM21105; test: Antifungal activity in vitro (resazurin susceptibility screen), Inf. L; type: cell-based; conditions: 27 °C, 48 hours, resa time 17 hours, read-out: Inf. L pIC50 (converted)
Method: as §1

[9] = test system: Rhizomucor miehei IHEM13391; test: Antifungal activity in vitro (resazurin susceptibility screen), Inf. K; type: cell-based; conditions: 37 °C, 48 hours, resa time 17 hours, read-out: Inf. K pIC50 (converted)
Method: as §1

[10] = test system: Scedosporium prolificans IHEM21157; test: Antifungal activity in vitro (resazurin susceptibility screen), Inf. I; type: cell-based; conditions: Lomentospora prolificans, 37 °C, 48 hours, resa time 17 hours, read-out: Inf. I pIC50 (converted)
Method: as §1

CYP3A4 = CYP3A4 (Homo sapiens, UniProt P08684); test: Cytochrome P450 inhibition, Protocol A, cDNA expressed proteins, fluorogenic substrates; type: in vitro ADME; conditions: % inhibition at 10 μM, cDNA expressed protein; for hCYP3A4_BFC_Pct_Inh: substrate BFC; for hCYP3A4_BQ_Pct_Inh: substrate BQ; for hCYP3A4_DBF_Pct_Inh: substrate DBF
Method in brief: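 cDNA-expressed enzymes with fluorogenic substrates (three separate ones for CYP3A4) in sodium/potassium buffer pH 7.4 plus NADPH-generating system. Compounds at 1 nM to 10 μM final, prewarmed 5 min at 37° C, reaction started with NADP+, stopped, then fluorescence measured.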

Rhizopus oryzae IHEM5223 = test: Antifungal activity in vitro (resazurin susceptibility screen), Inf. J; type: cell-based; conditions: Rhizopus arrhizus, 37 °C, 24 hours, resa time 6 hours, read-out: Inf. J pIC50 (converted)
Method: as §1

[11] = Liver metabolic stability assay, gpLM; type: in vitro ADME, guinea pig; conditions: guinea pig microsomes, 1 mg protein/ml, 5 μM test compound, 15 min, 37 °C
[12] = test system: Trichophyton rubrum B68183; test: Antifungal activity in vitro (resazurin susceptibility screen), Inf. C; type: cell-based; conditions: Trichophyton rubrum B68183; 27 °C, 7 days, resa time 24 hours; read-out: Inf. C pIC50 (converted)
Method in brief: as §2

Sequence of CYP3A4 (P08684 whole entry): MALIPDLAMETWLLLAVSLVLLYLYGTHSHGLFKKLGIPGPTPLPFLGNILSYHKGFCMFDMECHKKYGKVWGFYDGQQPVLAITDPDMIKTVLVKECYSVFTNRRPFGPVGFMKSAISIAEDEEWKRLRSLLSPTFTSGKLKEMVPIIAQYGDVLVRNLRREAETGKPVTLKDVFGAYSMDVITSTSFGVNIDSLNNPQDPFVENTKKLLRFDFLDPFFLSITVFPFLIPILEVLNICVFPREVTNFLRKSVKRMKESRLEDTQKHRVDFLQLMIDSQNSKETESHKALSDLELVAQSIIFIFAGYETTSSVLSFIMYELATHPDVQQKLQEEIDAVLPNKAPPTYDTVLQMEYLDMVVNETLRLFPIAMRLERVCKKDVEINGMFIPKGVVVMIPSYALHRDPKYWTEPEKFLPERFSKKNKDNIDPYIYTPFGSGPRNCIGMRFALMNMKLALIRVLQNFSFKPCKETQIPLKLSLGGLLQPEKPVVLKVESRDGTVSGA

Row | SMILES | IC50 [1] | IC50 [2] | IC50 [3] | IC50 [4] | %-compound metabolised_Met_hLM [5] | IC50 (Microsporum canis B68128) | IC50 [6] | IC50 [7] | IC50 [8] | IC50 [9] | IC50 [10] | hCYP3A4_BFC_Pct_Inh (CYP3A4) | hCYP3A4_BQ_Pct_Inh (CYP3A4) | hCYP3A4_DBF_Pct_Inh (CYP3A4) | IC50 (Rhizopus oryzae IHEM5223) | %-compound metabolised Met_gpLM [11] | IC50 [12]
1 | CC(=O)c1ccc(C2=NCc3cccc(Cl)c3-n3cccc32)cc1 [Compound 15, 1-[4-(10-chloro-6H-pyrrolo[1,2-a][1,4]benzodiazepin-4-yl)phenyl]-ethanone] | 10000 nM | 501 nM | > 63100 nM | 1580 nM | 17% | 631 nM | 2000 nM | 398 nM | > 63100 nM | 7940 nM | 2000 nM | 1% | 40% | 16% | > 63100 nM | 44% | 126 nM
2 | CC(=O)c1cccc(C2=NCc3c(Cl)cccc3-n3cccc32)c1 [Compound 16, 1-[3-(7-chloro-6H-pyrrolo[1,2-a][1,4]benzodiazepin-4-yl)phenyl]-ethanone] | > 63100 nM | 631 nM | > 63100 nM | 25100 nM | 87% | 316 nM | > 63100 nM | 398 nM | > 63100 nM | > 63100 nM | > 63100 nM | 29% | 46% | 64% | > 63100 nM | 100% | 50.1 nM
3 | CC(=O)c1cc(C2=NCc3c(Cl)cccc3-n3cccc32)ccc1F [Compound 19, 1-[5-(7-chloro-6H-pyrrolo[1,2-a][1,4]benzodiazepin-4-yl)-2-fluorophenyl]-ethanone] | > 63100 nM | 2000 nM | > 63100 nM | > 63100 nM | 36% | 1580 nM | > 63100 nM | 794 nM | > 63100 nM | > 63100 nM | 1260 nM | 26% | 49% | 49% | > 63100 nM | 80% | 200 nM
4 | CC(=O)c1ccc(C2=NCc3c(F)cccc3-n3cccc32)cc1 [Compound 20, 1-[4-(7-fluoro-6H-pyrrolo[1,2-a][1,4]benzodiazepin-4-yl)phenyl]-ethanone] | > 63100 nM | 501 nM | > 63100 nM | > 63100 nM | 26% | 1260 nM | > 63100 nM | 398 nM | > 63100 nM | > 63100 nM | 631 nM | 1% | 25% | 5% | > 63100 nM | 88% | 100 nM
5 | CC(=O)c1ccc(C2=NCc3c(Cl)cc(Cl)cc3-n3cccc32)cc1 [Compound 22, 1-[4-(7,9-dichloro-6H-pyrrolo[1,2-a][1,4]benzodiazepin-4-yl)phenyl]-ethanone] | 50100 nM | 251 nM | 25100 nM | 3980 nM | 27% | 100 nM | 10000 nM | 316 nM | > 63100 nM | > 63100 nM | 1260 nM | 39% | 63% | 89% | > 63100 nM | 73% | 50.1 nM
6 | CC(=O)c1ccc(C2=NCc3c(F)cc(F)cc3-n3cccc32)cc1 [Compound 24, 1-[4-(7,9-difluoro-6H-pyrrolo[1,2-a][1,4]benzodiazepin-4-yl)phenyl]-ethanone] | 7940 nM | 794 nM | 3980 nM | 20000 nM | 20% | 2000 nM | 10000 nM | 631 nM | > 63100 nM | > 63100 nM | 2510 nM | 3% | 39% | 3% | > 63100 nM | 53% | 126 nM
